In patent US4254128A, “2-Adamantyl hydrazines and biocidal compositions thereof” (Teva Pharmaceutical Industries Ltd., priority 1977, dated 1981):
Structures can show the parent of a compound that is named as a salt. Where two headings read alike, the source gives them in different places.

What was measured:
[1] = Toxic limit in the HSV replication test; details: monkey, bsc-1 cells
[2] = tested on: HSV-1 (Herpes Simplex); assay: Inhibition test on HSV replication; format: cell-based
From the text: BSC-1 (Green monkey kidney)
**% Inhibition of control infected for some time with same virus PFV with […]

[3] = tested on: Leptospira canicola Kipod 146; assay: Anti leptospiral activity (minimal inhibition concentration); format: cell-based; details: for MIC: Leptospira interrogans, KIPOD146, 240 h; for anti leptospiral activity: summary in words
Method: The tests were carried out under the following conditions:
Leptospira: Leptospira canicola Kipod 146
Inoculum: 1-10^5 cells/ml
Incubation time: 10 days, 28° C.
Evaluation: Direct count in dark field microscopy after 4,7 and 10 days.
2 Minimal+0.5% albumin (Pentex)
3 Korthof rich medium with 8% serum.
4 Korthof rich medium with 2% serum.

[4] = tested on: Trypanosoma; assay: Anti trypanosoma test in vitro; format: cell-based; details: for Trypanosoma in vitro activity score: 37° C., scoring as in b (promastigotes); for activity against Trypanosoma: summary in words
Method: Trypanosoma in RPM1 medium in vitro at 37° C. Scoring as in b.

[5] = tested on: Leishmania; assay: Anti leishmania tests, summary; format: cell-based, L. tropica; details: summary in words
Method: (§1) a. amastigotes in peritoneal exudate cells in Mc Coy's medium in vitro at 37° C.
(§2) b. promastigotes in Mc Coy's medium in vitro at 27° C.

[6] = tested on: L. tropica amastigotes; assay: Anti leishmania test, amastigotes in peritoneal exudate cells in vitro; format: cell-based; details: 37° C.
Method: as §1
+++=clearance of all parasites in 24 hours
++=clearance of all parasites in 48 hours
+=clearance of all parasites in 72 hours
±=Partial clearance of parasites in 72 hours or more
-=No activity against parasites.

[7] = tested on: L. tropica promastigotes; assay: Anti leishmania test, promastigotes in vitro; format: cell-based; details: 27° C.
Method: as §2
+++=No viable parasites after 24 hours
++=No viable parasites after 48 hours
+=No viable parasites after 72 hours
±=No viable parasites after 96 hours p2 -=viable parasites after 120 hours.

[8] = tested on: albino mice; assay: Stereotyped behaviour in mice; format: in vivo, Male ICR albino mice; design: scale not given here; details: 50 mg/kg i.p.
[9] = tested on: albino rats; assay: Antiparkinson activity (catalepsy produced by haloperidol); format: in vivo, Male Charles River albino rats; details: 80 mg/kg i.p.
Method: Male Charles River albino rats, weighing 200-250 g, were used. Catalepsy was produced by haloperidol, 5 mg/kg i.p. The animals were placed with their front paws on a horizontal bar, about 10 cm above the ground, and animals were considered cataleptic if not changing posture for at least 30 sec. Cataleptic animals were injected i.p. with one of the drugs at a dose of 40-80 mg/kg. Catalepsy was estimated again at the intervals indicated.

[10] = tested on: albino mice; assay: Stereotyped behaviour in mice; format: in vivo, Male ICR albino mice; design: stereotyped behaviour score / Total Score / Mean Score: scale not given here; details: 50 mg/kg i.p.
Method: Male ICR albino mice weighing 25-30 g were put in cages with a metal grid floor, 4 in each cage. Drugs were injected intraperitoneally and stereotyped behaviour (sniffing, biting, repetitive head movement) was evaluated every 30 min.

[11] = minimal + Pentex (0.5% albumin)

## NC12CC3CC(CC(C3)C1)C2 [Amant., Amantadine, reference compound]
[1]
  MNTC: 50 µg/mL
[2]; Human alphaherpesvirus 1, BSC-1
  inhibition at 50 µg/mL: 93%

## CN(C)NC1C2CC3CC(C2)CC1C3 (centres unmarked) [Example 1, 1-(2'-Adamantyl)-2,2-dimethylhydrazine hydrochloride]
[3]; Korthof + 8% serum
  MIC: 12.5 µg/mL
[3]; [11]
  MIC: 12.5 µg/mL
[3]; minimal medium
  MIC: 12.5 µg/mL
[3]
  anti leptospiral activity: active

## c1ccc(NNC2C3CC4CC(C3)CC2C4)cc1 (centres unmarked) [Example 3, 1-(2'-Adamantyl)-2-phenylhydrazine hydrochloride]
[4]; 10 μg
  Trypanosoma in vitro activity score: + (No viable parasites after 72 hours)
[4]; 100 μg
  Trypanosoma in vitro activity score: +++ (No viable parasites after 24 hours)
[4]
  activity against Trypanosoma: active
[3]; Korthof + 8% serum
  MIC: 100 µg/mL
[3]; minimal medium
  MIC: 6.25 µg/mL
[3]
  anti leptospiral activity: active

## FC(F)(F)c1cccc(NNC2C3CC4CC(C3)CC2C4)c1 (centres unmarked) [Example 6, 1-(2'-Adamantyl)-2-(m-trifluoromethylphenyl)hydrazine hydrochloride]
[3]; Korthof + 8% serum
  MIC: 50 µg/mL
[3]; minimal medium
  MIC: 12.5 µg/mL
[3]
  anti leptospiral activity: active

## c1ccc(NNC2C3CC4CC(C3)CC2C4)nc1 (centres unmarked) [Example 8, 1-(2'-Adamantyl)-2-(2"-pyridyl)hydrazine hydrochloride]
[5]
  activity against Leishmania: active
[4]; 10 μg
  Trypanosoma in vitro activity score: + (No viable parasites after 72 hours)
[4]; 100 μg
  Trypanosoma in vitro activity score: +++ (No viable parasites after 24 hours)
[4]
  activity against Trypanosoma: active
[6]; 10 μg
  Leishmania amastigote activity score: + (clearance of all parasites in 72 hours)
[6]; 100 μg
  Leishmania amastigote activity score: +++ (clearance of all parasites in 24 hours)

## C1CCCN(NC2C3CC4CC(C3)CC2C4)CC1 (centres unmarked) [Example 11, 1-(2'-Adamantylamino)homopiperidine hydrochloride]
[4]; 10 μg
  Trypanosoma in vitro activity score: + (No viable parasites after 72 hours)
[4]; 100 μg
  Trypanosoma in vitro activity score: +++ (No viable parasites after 24 hours)
[4]
  activity against Trypanosoma: active

## CNNC1C2CC3CC(C2)CC1C3 (centres unmarked) [Example 25, 1-(2'-Adamantyl)-2-methylhydrazine hydrochloride]
[5]
  activity against Leishmania: active
[7]; 100 μg
  Leishmania promastigote activity score: +++ (No viable parasites after 24 hours)
[6]; 100 μg
  Leishmania amastigote activity score: ++ (clearance of all parasites in 48 hours)

## CN(CC(=O)O)NC1C2CC3CC(C2)CC1C3 (centres unmarked) [Example 37, [2-(2'-Adamantyl)-1-methylhydrazino]acetic acid hydrochloride]
[3]; Korthof + 2% serum
  MIC: 12.5 µg/mL
[3]; Korthof + 8% serum
  MIC: 12.5 to 25 µg/mL
[3]; [11]
  MIC: 25 µg/mL
[3]; minimal medium
  MIC: 25 µg/mL
[3]
  anti leptospiral activity: active

## CC(NNC1C2CC3CC(C2)CC1C3)C(=O)O (stereo not drawn) [Example 38, α-[2-(2'-Adamantyl)hydrazino]propionic acid hydrochloride]
[5]
  activity against Leishmania: active
[7]; 10 μg
  Leishmania promastigote activity score: ± (No viable parasites after 96 hours)
[7]; 100 μg
  Leishmania promastigote activity score: ++ (No viable parasites after 48 hours)
[6]; 100 μg
  Leishmania amastigote activity score: ++ (clearance of all parasites in 48 hours)

## CNN(C)C1C2CC3CC(C2)CC1C3 (centres unmarked) [Example 49, 1-(2'-Adamantyl)-1,2-dimethylhydrazine hydrochloride]
[1]
  MNTC: 100 µg/mL
[4]; 100 μg
  Trypanosoma in vitro activity score: ++ (No viable parasites after 48 hours)
[4]
  activity against Trypanosoma: active
[2]; Human alphaherpesvirus 1, 50 μg/ml, BSC-1 cells, 10 PFU/cell, read-out: % Inhibition
  inhibition at 50 µg/mL: 60%
[2]; Human alphaherpesvirus 1, 100 μg/ml, BSC-1 cells, 10 PFU/cell
  inhibition at 100 µg/mL: 92%
[2]; Human alphaherpesvirus 1, 200 μg/ml, BSC-1 cells, 10 PFU/cell
  inhibition at 200 µg/mL: 99.9%

## CC(C)NNC1C2CC3CC(C2)CC1C3 (centres unmarked) [Example 51, 1-(2'-Adamantyl)-2-isopropylhydrazine hydrochloride]
[5]
  activity against Leishmania: active
[4]; 100 μg
  Trypanosoma in vitro activity score: +++ (No viable parasites after 24 hours)
[4]
  activity against Trypanosoma: active
[6]; 10 μg
  Leishmania amastigote activity score: ± (Partial clearance of parasites in 72 hours or more)
[6]; 100 μg
  Leishmania amastigote activity score: ++ (clearance of all parasites in 48 hours)

## N=C(N)c1ccc(OCCCCCOc2ccc(C(=N)N)cc2)cc1 [Pentamidine, reference compound]
[7]; 10 μg
  Leishmania promastigote activity score: +++ (No viable parasites after 24 hours)
[7]; 100 μg
  Leishmania promastigote activity score: +++ (No viable parasites after 24 hours)
[4]; 100 μg
  Trypanosoma in vitro activity score: ++ (No viable parasites after 48 hours)

## NC12CC3CC(CC(C3)C1)C2 [Symmetrel, reference compound]
[8]; 45 min, mouse 1
  stereotyped behaviour score: 1
[8]; 45 min, mouse 2
  stereotyped behaviour score: 1
[8]; 135 min, mouse 3
  stereotyped behaviour score: 2
[8]; 135 min, mouse 4
  stereotyped behaviour score: 2
[9]; rat 1
  anticataleptic effect: 0/4
[9]; rat 2
  anticataleptic effect: 2/4
[9]; rat 3
  anticataleptic effect: 3/4
[9]; rat 4
  anticataleptic effect: 3/4
[9]; rat 5
  anticataleptic effect: 3/4
[10]; 0 min, mouse 1
  stereotyped behaviour score: 0
[10]; 0 min, mouse 2
  stereotyped behaviour score: 0
[10]; 0 min, mouse 3
  stereotyped behaviour score: 0
[10]; 0 min, mouse 4
  stereotyped behaviour score: 0
[10]; 30 min, mouse 1
  stereotyped behaviour score: 1
[10]; 30 min, mouse 2
  stereotyped behaviour score: 1
[10]; 30 min, mouse 3
  stereotyped behaviour score: 1
[10]; 30 min, mouse 4
  stereotyped behaviour score: 1
[10]; 45 min, mouse 3
  stereotyped behaviour score: 1
[10]; 45 min, mouse 4
  stereotyped behaviour score: 1
[10]; 60 min, mouse 1
  stereotyped behaviour score: 2
[10]; 60 min, mouse 2
  stereotyped behaviour score: 2
[10]; 60 min, mouse 3
  stereotyped behaviour score: 1
[10]; 60 min, mouse 4
  stereotyped behaviour score: 1
[10]; 90 min, mouse 1
  stereotyped behaviour score: 1
[10]; 90 min, mouse 2
  stereotyped behaviour score: 1
[10]; 90 min, mouse 3
  stereotyped behaviour score: 2
[10]; 90 min, mouse 4
  stereotyped behaviour score: 1
[10]; 120 min, mouse 1
  stereotyped behaviour score: 2
[10]; 120 min, mouse 2
  stereotyped behaviour score: 2
[10]; 120 min, mouse 3
  stereotyped behaviour score: 2
[10]; 120 min, mouse 4
  stereotyped behaviour score: 2
[10]; 135 min, mouse 1
  stereotyped behaviour score: 2
[10]; 135 min, mouse 2
  stereotyped behaviour score: 2
[10]; 150 min, mouse 1
  stereotyped behaviour score: 2
[10]; 150 min, mouse 2
  stereotyped behaviour score: 2
[10]; 150 min, mouse 3
  stereotyped behaviour score: 2
[10]; 150 min, mouse 4
  stereotyped behaviour score: 2
[10]; 180 min, mouse 1
  stereotyped behaviour score: 2
[10]; 180 min, mouse 2
  stereotyped behaviour score: 2
[10]; 180 min, mouse 3
  stereotyped behaviour score: 2
[10]; 180 min, mouse 4
  stereotyped behaviour score: 2
[10]; 210 min, mouse 1
  stereotyped behaviour score: 2
[10]; 210 min, mouse 2
  stereotyped behaviour score: 2
[10]; 210 min, mouse 3
  stereotyped behaviour score: 2
[10]; 210 min, mouse 4
  stereotyped behaviour score: 1
[10]; 240 min, mouse 1
  stereotyped behaviour score: 2
[10]; 240 min, mouse 2
  stereotyped behaviour score: 2
[10]; 240 min, mouse 3
  stereotyped behaviour score: 2
[10]; 240 min, mouse 4
  stereotyped behaviour score: 0
[10]; mean of 4 mice
  Mean Score: 16
[10]; mouse 1
  Total Score: 17
[10]; mouse 2
  Total Score: 17
[10]; mouse 3
  Total Score: 17
[10]; mouse 4
  Total Score: 13
